Measurements taken from patent publication US20250290117A1, “MOLECULAR PHENOTYPIC ANTIMICROBIAL SUSCEPTIBILITY TESTING” (priority 2024, published 2025).

Assays:
[1] = test system: Escherichia coli; assay: Molecular phenotypic antimicrobial susceptibility test (extraction or DNA purification prior to PCR); assay type: cell-based
Method in brief: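 Growth of clinical isolates under antimicrobials held at breakpoint concentrations was scored by semi-quantitative PCR against drug-free control wells. Exposure ran 12-16 hours from a 0.5 McFarland inoculum.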

[2] = test system: pathogen of the specimen; assay: Molecular phenotypic antimicrobial susceptibility test with direct PCR at various incubation timepoints (Table 7); assay type: cell-based
Method in brief: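 Specimens with known microbial load are cultured, diluted to 0.5 McFarland using optical density, then exposed to antimicrobials prepared in liquid culture media (e.g., Muller Hinton Broth) at their established sensitivity breakpoint concentrations. After incubation, samples are lysed with buffer in a thermal cycler and analyzed by direct semi-quantitative PCR, with antimicrobial-free control wells serving as the susceptibility threshold.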

[3] = E. coli isolate 1, Ct at control (average) 21.238
[4] = E. coli isolate 1, at sensitive breakpoint
[5] = E. coli isolate 2, Ct at control (average) 21.270
[6] = E. coli isolate 2, at sensitive breakpoint
[7] = E. coli isolate 3, Ct at control (average) 22.0995
[8] = E. coli isolate 3, at sensitive breakpoint
[9] = E. coli isolate 4, at sensitive breakpoint
[10] = E. coli isolate 5, Ct at control (average) 21.0933
[11] = E. coli isolate 5, at sensitive breakpoint
[12] = E. coli isolate 1189, antibiotic incubation time 4 hours
[13] = E. coli isolate 1189, antibiotic incubation time 4 hours, control average Ct […]
[14] = E. coli isolate 1189, antibiotic incubation time 6 hours
[15] = E. coli isolate 1189, antibiotic incubation time 6 hours, control average Ct 16.992
[16] = E. coli isolate 1189, antibiotic incubation time 8 hours
[17] = E. coli isolate 1189, antibiotic incubation time 8 hours, control average Ct […]
[18] = E. coli isolate 1189, antibiotic incubation time 10 hours
[19] = E. coli isolate 1189, antibiotic incubation time 10 hours, control average Ct 15.995
[20] = E. coli isolate 1189, antibiotic incubation time 12 hours
[21] = E. coli isolate 1189, antibiotic incubation time 12 hours, control average Ct 15.495
[22] = E. coli isolate 1189, antibiotic incubation time 14 hours
[23] = E. coli isolate 1189, antibiotic incubation time 14 hours, control average Ct 15.826
[24] = E. coli isolate 1189, antibiotic incubation time 16 hours
[25] = E. coli isolate 1189, antibiotic incubation time 16 hours, control average Ct 14.880

With Piperacillin/Tazobactam the “Ct at Sensitive Breakpoint” value [1, 3] was 25.572, the “Molecular Antimicrobial Susceptibility Result” value [1, 4] was “Sensitive (Antimicrobial wells with pathogen load detected below the control wells (typically >2 cycle thresholds later) may be reported as Sensitive)” and the “Ct at Sensitive Breakpoint” value [1, 5] was 22.685. The “Molecular Antimicrobial Susceptibility Result” value [1, 6] was “Sensitive (Antimicrobial wells with pathogen load detected below the control wells (typically >2 cycle thresholds later) may be reported as Sensitive)”, the “Ct at Sensitive Breakpoint” value [1, 7] was 20.541 and the “Molecular Antimicrobial Susceptibility Result” value [1, 8] was “Sensitive (Antimicrobial wells with pathogen load detected below the control wells (typically >2 cycle thresholds later) may be reported as Sensitive)”. For the same substance, the “Ct at Sensitive Breakpoint” value ([1]; E. coli isolate 4, Ct at control (average) 17.5733) was 26.05, the “Molecular Antimicrobial Susceptibility Result” value [1, 9] was “Sensitive (Antimicrobial wells with pathogen load detected below the control wells (typically >2 cycle thresholds later) may be reported as Sensitive)” and the “Ct at Sensitive Breakpoint” value [1, 10] was 25.44. The “Molecular Antimicrobial Susceptibility Result” value [1, 11] was “Sensitive (Antimicrobial wells with pathogen load detected below the control wells (typically >2 cycle thresholds later) may be reported as Sensitive)”, the “Molecular Antimicrobial Susceptibility Result” value [2, 12] was “Sensitive (Antimicrobial wells with pathogen load detected below the control wells (typically >2 cycle thresholds later) may be reported as Sensitive)” and the “Ct at Sensitive Breakpoint” value [2, 13] was 20.904. For the same substance, the “Molecular Antimicrobial Susceptibility Result” value [2, 14] was “Sensitive (Antimicrobial wells with pathogen load detected below the control wells (typically >2 cycle thresholds later) may be reported as Sensitive)”, the “Ct at Sensitive Breakpoint” value [2, 15] was 21.624 and the “Molecular Antimicrobial Susceptibility Result” value [2, 16] was “Sensitive (Antimicrobial wells with pathogen load detected below the control wells (typically >2 cycle thresholds later) may be reported as Sensitive)”. For the same substance, the “Ct at Sensitive Breakpoint” value [2, 17] was 21.570, the “Molecular Antimicrobial Susceptibility Result” value [2, 18] was “Sensitive (Antimicrobial wells with pathogen load detected below the control wells (typically >2 cycle thresholds later) may be reported as Sensitive)” and the “Ct at Sensitive Breakpoint” value [2, 19] was 22.310. For the same substance, the “Molecular Antimicrobial Susceptibility Result” value [2, 20] was “Sensitive (Antimicrobial wells with pathogen load detected below the control wells (typically >2 cycle thresholds later) may be reported as Sensitive)”, the “Ct at Sensitive Breakpoint” value [2, 21] was 22.359 and the “Molecular Antimicrobial Susceptibility Result” value [2, 22] was “Sensitive (Antimicrobial wells with pathogen load detected below the control wells (typically >2 cycle thresholds later) may be reported as Sensitive)”. For the same substance, the “Ct at Sensitive Breakpoint” value [2, 23] was 24.257, the “Molecular Antimicrobial Susceptibility Result” value [2, 24] was “Sensitive (Antimicrobial wells with pathogen load detected below the control wells (typically >2 cycle thresholds later) may be reported as Sensitive)” and the “Ct at Sensitive Breakpoint” value [2, 25] was 24.143.

For Trimethoprim/Sulfamethoxazole [TMP/SMX], the “Ct at Sensitive Breakpoint” value [1, 3] was 32.294, the “Molecular Antimicrobial Susceptibility Result” value [1, 4] was “Sensitive (Antimicrobial wells with pathogen load detected below the control wells (typically >2 cycle thresholds later) may be reported as Sensitive)” and the “Ct at Sensitive Breakpoint” value [1, 5] was 28.875. The “Molecular Antimicrobial Susceptibility Result” value [1, 6] was “Sensitive (Antimicrobial wells with pathogen load detected below the control wells (typically >2 cycle thresholds later) may be reported as Sensitive)”, the “Ct at Sensitive Breakpoint” value [1, 7] was 30.605 and the “Molecular Antimicrobial Susceptibility Result” value [1, 8] was “Sensitive (Antimicrobial wells with pathogen load detected below the control wells (typically >2 cycle thresholds later) may be reported as Sensitive)”. The “Molecular Antimicrobial Susceptibility Result” value [1, 9] was “Resistant”, the “Ct at Sensitive Breakpoint” value [1, 10] was 29.12 and the “Molecular Antimicrobial Susceptibility Result” value [1, 11] was “Sensitive (Antimicrobial wells with pathogen load detected below the control wells (typically >2 cycle thresholds later) may be reported as Sensitive)”. For the same substance, the “Molecular Antimicrobial Susceptibility Result” value [2, 12] was “Sensitive (Antimicrobial wells with pathogen load detected below the control wells (typically >2 cycle thresholds later) may be reported as Sensitive)”, the “Ct at Sensitive Breakpoint” value [2, 13] was 24.603 and the “Molecular Antimicrobial Susceptibility Result” value [2, 14] was “Sensitive (Antimicrobial wells with pathogen load detected below the control wells (typically >2 cycle thresholds later) may be reported as Sensitive)”. The “Ct at Sensitive Breakpoint” value [2, 15] was 23.984, the “Molecular Antimicrobial Susceptibility Result” value [2, 16] was “Sensitive (Antimicrobial wells with pathogen load detected below the control wells (typically >2 cycle thresholds later) may be reported as Sensitive)” and the “Ct at Sensitive Breakpoint” value [2, 17] was 24.482. For the same substance, the “Molecular Antimicrobial Susceptibility Result” value [2, 18] was “Sensitive (Antimicrobial wells with pathogen load detected below the control wells (typically >2 cycle thresholds later) may be reported as Sensitive)”, the “Ct at Sensitive Breakpoint” value [2, 19] was 24.129 and the “Molecular Antimicrobial Susceptibility Result” value [2, 20] was “Sensitive (Antimicrobial wells with pathogen load detected below the control wells (typically >2 cycle thresholds later) may be reported as Sensitive)”. For the same substance, the “Ct at Sensitive Breakpoint” value [2, 21] was 23.878, the “Molecular Antimicrobial Susceptibility Result” value [2, 22] was “Sensitive (Antimicrobial wells with pathogen load detected below the control wells (typically >2 cycle thresholds later) may be reported as Sensitive)” and the “Ct at Sensitive Breakpoint” value [2, 23] was 24.017. For the same substance, the “Molecular Antimicrobial Susceptibility Result” value [2, 24] was “Sensitive (Antimicrobial wells with pathogen load detected below the control wells (typically >2 cycle thresholds later) may be reported as Sensitive)” and the “Ct at Sensitive Breakpoint” value [2, 25] was 23.552.
